Laboratory results taken from patent US10174067B2, “Type of cytidine derivative and application thereof” (priority 2014, dated 2019).

Assay: in vivo
Settings: female, mouse, in vivo, ip
How it was run: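 Female SPF ICR mice received a single ip dose in ethanol/Cremophor EL/saline (5:5:90), with dose lowered after deaths and raised otherwise. MTD defined as dose causing no death, no >10% weight loss versus Day 0 and no significant side effects; daily weights and twice-daily clinical observation over 7-14 days.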

| Structure (SMILES) | MTD at 7 days [mg/kg] |
| --- | --- |
| CCCCOC(=O)Nc1nc(=O)n([C@@H]2O[C@H](COC(=O)Cn3cnc([N+](=O)[O-])c3)C(O)C2(F)F)cc1I (some centres unmarked) [Compound G12] | 400 |
| O=C(COc1nc(Cl)c(Cl)cc1Cl)OC[C@H]1O[C@@H](n2cc(Br)c(NC(=O)OCc3ccccc3)nc2=O)C(F)(F)C1O (some centres unmarked) [Compound G10] | 400 |
